Target: T1, NS1 protein (RSV non-structural protein NS1) (Human respiratory syncytial virus A2, UniProt P0DOE9)
T1 construct: gene 1C; NS1 coupled to CM5 chip
Assay: SPR (Biacore T200, NS1 coupled to CM5 chip)
Format: binding

T1 sequence (P0DOE9 whole entry): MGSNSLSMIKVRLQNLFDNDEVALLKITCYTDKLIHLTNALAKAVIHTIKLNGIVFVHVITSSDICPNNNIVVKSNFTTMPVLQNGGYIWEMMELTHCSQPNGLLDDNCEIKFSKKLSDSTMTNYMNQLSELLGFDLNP

SMILES: O=C(O)[C@H]1O[C@@H](Oc2cc3oc(-c4ccccc4)cc(=O)c3c(O)c2O)[C@H](O)[C@@H](O)[C@@H]1O [baicalin]
- Kd: 11.2 µM
